± gives the expanded uncertainty stated by the source.
Assays:
[1] = xn = mol fraction of the nth substance listed; conditions: 100 kPa, Liquid, x2 = 0; for viscosity: Concentric cylinders viscometry; for mass density: Vibrating tube method
[2] = refractive index (Na D-line) (dimensionless); xn = mol fraction of the nth substance listed; conditions: 100 kPa, Liquid, Standard Abbe refractometry, x2 = 0
[3] = 100 kPa, Liquid; for viscosity: Concentric cylinders viscometry; for mass density: Vibrating tube method
[4] = refractive index (Na D-line) (dimensionless); conditions: 100 kPa, Liquid, Standard Abbe refractometry

CC(C)CCO [3-methylbutan-1-ol] + CCOC(=O)CCC(=O)OCC
Conditions | mass density, [1] [kg/m3] | refractive index, [2] | viscosity, [1] [mPa·s]
288.15 K | 812.29 ± 1.6 | 1.4087 ± 0.0028 | 5.057 ± 0.047
293.15 K | 808.58 ± 1.6 | 1.4067 ± 0.0028 | 4.287 ± 0.04
298.15 K | 804.84 ± 1.6 | 1.4047 ± 0.0028 | 3.671 ± 0.035
303.15 K | 801.09 ± 1.6 | 1.4026 ± 0.0028 | 3.155 ± 0.03
308.15 K | 797.31 ± 1.6 | 1.4005 ± 0.0028 | 2.73 ± 0.026
313.15 K | 793.51 ± 1.6 | 1.3985 ± 0.0028 | 2.375 ± 0.023
318.15 K | 789.67 ± 1.6 | 1.3964 ± 0.0028 | 2.076 ± 0.02
323.15 K | 785.79 ± 1.6 | 1.3943 ± 0.0028 | 1.841 ± 0.018

CCCCCCCC(=O)OCC [ethyl octanoate]
Conditions | mass density, [3] [kg/m3] | refractive index, [4] | viscosity, [3] [mPa·s]
288.15 K | 870.88 ± 1.7 | 1.4199 ± 0.0028 | 1.686 ± 0.022
293.15 K | 866.58 ± 1.7 | 1.4177 ± 0.0028 | 1.537 ± 0.02
298.15 K | 862.28 ± 1.7 | 1.4155 ± 0.0028 | 1.41 ± 0.019
303.15 K | 857.98 ± 1.7 | 1.4132 ± 0.0028 | 1.298 ± 0.017
308.15 K | 853.68 ± 1.7 | 1.411 ± 0.0028 | 1.2 ± 0.016
313.15 K | 849.37 ± 1.7 | 1.4088 ± 0.0028 | 1.118 ± 0.015
318.15 K | 845.06 ± 1.7 | 1.4066 ± 0.0028 | 1.035 ± 0.014
323.15 K | 840.74 ± 1.7 | 1.4044 ± 0.0028 | 0.9708 ± 0.013

CC(C)CCO [3-methylbutan-1-ol] + CCCCCCCC(=O)OCC
Conditions | mass density, [1] [kg/m3] | refractive index, [2] | viscosity, [1] [mPa·s]
288.15 K | 812.29 ± 1.6 | 1.4087 ± 0.0028 | 5.057 ± 0.047
293.15 K | 808.58 ± 1.6 | 1.4067 ± 0.0028 | 4.287 ± 0.04
298.15 K | 804.84 ± 1.6 | 1.4047 ± 0.0028 | 3.671 ± 0.035
303.15 K | 801.09 ± 1.6 | 1.4026 ± 0.0028 | 3.155 ± 0.03
308.15 K | 797.31 ± 1.6 | 1.4005 ± 0.0028 | 2.73 ± 0.026
313.15 K | 793.51 ± 1.6 | 1.3985 ± 0.0028 | 2.375 ± 0.023
318.15 K | 789.67 ± 1.6 | 1.3964 ± 0.0028 | 2.076 ± 0.02
323.15 K | 785.79 ± 1.6 | 1.3943 ± 0.0028 | 1.841 ± 0.018

CC(C)CO [2-methyl-1-propanol] + CCCCCCCC(=O)OCC
Conditions | mass density, [1] [kg/m3] | refractive index, [2] | viscosity, [1] [mPa·s]
288.15 K | 805.88 ± 1.6 | 1.3978 ± 0.0028 | 4.829 ± 0.039
293.15 K | 802.03 ± 1.6 | 1.3958 ± 0.0028 | 4.052 ± 0.033
298.15 K | 798.16 ± 1.6 | 1.3937 ± 0.0028 | 3.431 ± 0.028
303.15 K | 794.25 ± 1.6 | 1.3916 ± 0.0028 | 2.923 ± 0.024
308.15 K | 790.31 ± 1.6 | 1.3895 ± 0.0028 | 2.505 ± 0.021
313.15 K | 786.31 ± 1.6 | 1.3874 ± 0.0028 | 2.161 ± 0.018
318.15 K | 782.26 ± 1.6 | 1.3853 ± 0.0028 | 1.875 ± 0.016
323.15 K | 778.14 ± 1.6 | 1.383 ± 0.0028 | 1.652 ± 0.014

CC(C)CO [2-methyl-1-propanol] + CCOC(=O)CCC(=O)OCC
Conditions | mass density, [1] [kg/m3] | refractive index, [2] | viscosity, [1] [mPa·s]
288.15 K | 805.88 ± 1.6 | 1.3978 ± 0.0028 | 4.829 ± 0.039
293.15 K | 802.03 ± 1.6 | 1.3958 ± 0.0028 | 4.052 ± 0.033
298.15 K | 798.16 ± 1.6 | 1.3937 ± 0.0028 | 3.431 ± 0.028
303.15 K | 794.25 ± 1.6 | 1.3916 ± 0.0028 | 2.923 ± 0.024
308.15 K | 790.31 ± 1.6 | 1.3895 ± 0.0028 | 2.505 ± 0.021
313.15 K | 786.31 ± 1.6 | 1.3874 ± 0.0028 | 2.161 ± 0.018
318.15 K | 782.26 ± 1.6 | 1.3853 ± 0.0028 | 1.875 ± 0.016
323.15 K | 778.14 ± 1.6 | 1.383 ± 0.0028 | 1.652 ± 0.014

Reference: the NIST ThermoML archive (doi:10.1016/j.jct.2016.09.030)
